Experimental data reported in patent EP3586876A1, “GLUCOSE-SENSITIVE PEPTIDE HORMONES” (Gubra ApS, priority 2018, dated 2020).

Assay: Hydrolysis of linkers with or without glucose present (half-life by LC-MS or UPLC)
Type: physicochemical
Conditions: pH 7.4, 37°C, 0.42 mM linker
Procedure: 1.3-1.8 mg of linkers was dissolved in 100 µL DMSO or 100 µL MeCN. 10 µL was taken out from the DMSO stock solution, diluted with 90µL DMSO and dissolved in 900 µL 1xPBS buffer containing 10 000 equiv glucose, pH 7.4 or 900 µL 1xPBS buffer pH 7.4, to give a final concentration of 0.42 mM of the linker. 10 µL was taken out from the MeCN stock solution, diluted with 40 µL MeCN and dissolved in 950 µL 1xPBS buffer containing 10 000 equiv glucose, pH 7.4 or 950 µL 1xPBS buffer pH 7.4 to give a final concentration of 0.42 mM of the linker. The samples were incubated at 37°C and continuously analysed by LC-MS or UPLC.

[1] = 10% DMSO in PBS buffer, 10.000 equiv Glc
[2] = 5% MeCN in PBS buffer, 10.000 equiv Glc

Compound	Half-life of the linker [1] [h]	Half-life of the linker (10% DMSO in PBS buffer, no Glc) [h]	Half-life of the linker [2] [h]	Half-life of the linker (5% MeCN in PBS buffer, no Glc) [h]
O=C(O)[C@@H]1CSC(Cc2ccccc2)N1 (some centres unmarked) [Linker 6]	24	>72		
COC(=O)[C@@H]1OC(c2ccccc2OC)O[C@H]1C(=O)OC [Linker 19]	1.5	1.7	2.5	2.5
COc1ccc(C2OC[C@@H](C(=O)OCc3ccccc3)N2C(=O)OC(C)(C)C)cc1 (some centres unmarked) [Linker 13]	>72	>72	>72	>72
COC(=O)[C@@H]1OC(c2ccc(OC)cc2)O[C@H]1C(=O)OC [Linker 17]	1.1	1.8	2.2	2.2
O=C(O)[C@@H]1CSC(c2ccc([N+](=O)[O-])cc2)N1 (some centres unmarked) [Linker 5]	>24	>72		
COc1cccc(C2N[C@H](C(=O)OCc3ccccc3)CS2)c1 (stereo partly drawn) [Linker 9, Benzyl (4R)-2-(3-methoxyphenyl)-1,3-thiazolidine-4-carboxylic acid]	>72		>72	
COc1ccc(C2N[C@H](C(=O)O)CS2)cc1 (some centres unmarked) [Linker 2]	2	4		
O=C(OCc1ccccc1)[C@@H]1CSC(c2ccccc2)N1 (stereo partly drawn) [Linker 7, Benzyl (4R)-2-phenyl-1,3-thiazolidine-4-carboxylic acid]	>48		>48	
O=C(O)[C@@H]1CSC(c2ccccc2O)N1 (some centres unmarked) [Linker 3]	0.5	2		
O=C(O)[C@@H]1CSC(c2ccccc2)N1 (some centres unmarked) [Linker 1]	12	>48		
CC(C)(C)OC(=O)N1C(c2ccccc2)OC[C@H]1C(=O)OCc1ccccc1 (some centres unmarked) [Linker 15]	>72	>72	>72	>72
COc1ccc(C2N[C@H](C(=O)O)CS2)cc1O (some centres unmarked) [Linker 4]	4	10		
CC(=O)Nc1ccc(C2N[C@H](C(=O)OCc3ccccc3)CS2)cc1 (stereo partly drawn) [Linker 11, Benzyl (4R)-2-(4-acetamidophenyl)-1,3-thiazolidine-4-carboxylic acid]	>72		>72	
COc1ccc(C2N[C@H](C(=O)OCc3ccccc3)CS2)cc1 (stereo partly drawn) [Linker 8, Benzyl (4R)-2-(4-methoxyphenyl)-1,3-thiazolidine-4-carboxylic acid]	42		46	
COc1ccccc1C1N[C@H](C(=O)OCc2ccccc2)CS1 (stereo partly drawn) [Linker 10, Benzyl (4R)-2-(2-methoxyphenyl)-1,3-thiazolidine-4-carboxylic acid]	23		45	
